Results reported in patent US7691925B2, “Pressure-sensitive adhesive composition, pressure-sensitive adhesive sheets and surface protecting film” (priority 2004, dated 2010).

Settings: 1 part ionic liquid in 9 parts toluene, 25° C., naked eyes
Experimental: “Toluene-soluble” in the present invention means that an ionic liquid is soluble in toluene, more specifically, refers to such nature that an ionic liquid is uniformly dissolved in toluene upon preparation of a 10 weight % solution of an ionic-liquid in toluene.
9 Parts by weight of toluene (guaranteed grade manufactured by Wako Pure Chemical Industries, Ltd.) was added to 1 part by weight of an ionic liquid, and this was mixed and stirred under a normal temperature (25° C.) for 10 minutes, and allowed to stand for 30 minutes.
Thereafter, solubility was assessed with naked eyes, and toluene-solubility was determined. In assessment criteria, the state where no separated substance is observed, and a substance is uniformly dissolved was assessed as “soluble” (existence of toluene-solubility).

Q: Which Toluene-solubility does the source give for `CCCCCC[N+](CCCCCC)(CCCCCC)CCCCCC.O=S(=O)([O-])C(F)(F)F` [ionic liquid (2), tetra-n-hexylammonium trifluoromethanesulfonate] here?
A: possession of toluene-solubility was confirmed

Q: For `CCCCC[N+](CCCCC)(CCCCC)CCCCC.O=S(=O)([O-])C(F)(F)F` [ionic liquid (1), tetra-n-pentylammonium trifluoromethanesulfonate], which Toluene-solubility is on record?
A: possession of toluene-solubility was confirmed

Q: For `CCCCCCCC[P+](CCCCCCCC)(CCCCCCCC)CCCCCCCC.O=S(=O)([O-])C(F)(F)F` [ionic liquid (4), tetra-n-octylphosphonium trifluoromethanesulfonate], which Toluene-solubility is on record?
A: possession of toluene-solubility was confirmed

Q: With `CCCCCCC[N+](CCCCCCC)(CCCCCCC)CCCCCCC.O=S(=O)([O-])C(F)(F)F` [ionic liquid (3), tetra-n-heptylammonium trifluoromethanesulfonate] as the molecule, how does the Toluene-solubility read?
A: possession of toluene-solubility was confirmed

Q: With `CCCC[n+]1cccc(C)c1.O=S(=O)([N-]S(=O)(=O)C(F)(F)F)C(F)(F)F` [ionic liquid (6), 1-butyl-3-methylpyridinium bis(trifluoromethanesulfon)imide, reference compound] as the molecule, how does the Toluene-solubility read?
A: possession of toluene-solubility was not confirmed
